Data taken from patent US7320679B2, “Therapeutic use of growth factor, and delivery device, especially for the treatment of intimal hyperplasia” (Ark Therapeutics, Ltd., priority 1996, dated 2008).
Entries after “also recorded” stand apart in the source; their conditions may differ.

Tests used:
[1] = tested on: carotid arteries (intimal thickening); assay: Collar-induced intimal thickening in rabbit carotid arteries after adventitial plasmid/liposome gene transfer; assay type: in vivo, New Zealand White rabbits; conditions: L-NAME 70 mg/kg/d in drinking water; 7 days after gene transfer
Source text: The model preserved EC integrity and permitted direct extravascular gene transfer without any intravascular manipulation.
Gene Transfer: Intimal thickening was induced in the carotid arteries of thirty-two New Zealand White rabbits by inserting an inert silicone collar around the arteries under a general anaesthesia (Booth et al, Atherosclerosis (1989) 76:257-268). […] No intravascular manipulations were involved in any steps of the studies. […] Plasmids used for the studies were isolated from E. coli cultures (DH5α) using Qiagen Mega columns and purified using three phenol/chloroform extractions and one ethanol precipitation (Ausubel et al, eds. Current Protocols in Molecular Biology. New York, N.Y.: Greene Publishing Associates and John Wiley & Sons (1991) 4.2.3-4.2.4) were adjusted to 1 μg/μl and analysed to be free of any microbiological or endotoxin contamination (Limulus assay, detection limit 0.2 ng). […] Differences in the intima/media thickness ratios between the groups were analysed by ANOVA, followed by modified t-test (*p<0.05). […]
Gene transfer was carried out as described in Example 1.1. […] Animals were sacrificed 7 days after gene transfer and analysed for the intima/media thickness ratio and histology as described above (Ylä-Herttuala et al, Arteriosclerosis (1986) 6: 230-236; Ylä-Herttuala et al (1990) supra). […]

[2] = tested on: 205 kD protein corresponding to VEGF receptor; assay: Anti-phosphotyrosine immunoprecipitation/immunoblot in HUVEC; assay type: cell-based, human; conditions: 100 μM L-NAME 1 h pretreatment; 10 ng/ml VEGF 10 min
Description: In some experiments, cells were pretreated for 1 h with 100 μM L-NAME and subsequently treated either with or without. […] The medium was removed and cells were rapidly lysed at 4° C. by addition of 10 mM Tris/HCl (pH 7.6), 5 mM EDTA, 50 mM NaCl, 30 mM sodium pyrophosphate, 50 mM NaF, 0.1 mM Na3VO4, 1 mM PMSF and 1% Triton X-100 (lysis buffer). Lysates were clarified by centrifugation at 15000×g for 10 min, and immunoprecipitations were performed by incubating clarified lysates with PY20 anti-phosphotyrosine mAb for 2 h at […] Immunoprecipitates were collected by incubating lysates for a further 1 hour with protein A-agarose. Immunoprecipitates were washed three times with lysis buffer and proteins were then extracted with 2×SDS-PAGE sample buffer. After SDS-PAGE, immunoprecipitated proteins were transferred to membranes and then immunoblotted with PY20 mAb.

NO production in HUVEC = assay: Nitrite (NO) production in HUVEC, capillary detection method; assay type: cell-based, human
Description: Nitrite production was measured using capillary detection method (Leone et al, in Methods in Nitric Oxide Research, Feelisch and Stanler, eds. John Wiley & Sons, New York (1996) 499-508).

With `COC(=O)[C@@H](N)CCCNC(=N)N[N+](=O)[O-]` [L-NAME] the “effect of L-NAME on the difference in intimal thickening between VEGF- and lacZ-transfected arteries” value [1] was “abolished”, the “effect of L-NAME on VEGF-induced phosphorylation” value [2] was “abolishes the response to VEGF; also recorded: completely abolished” and the “effect of L-NAME on VEGF-induced NO production” value (NO production in HUVEC; 100 μM L-NAME) was “completely abolished”. The “nitrite production level after L-NAME” value (NO production in HUVEC; L-NAME 100 μM pretreatment 1 hour, then 25 ng/ml VEGF 10 minutes) was roughly 17 µM.
